Assay results from patent US12274710B2, “Compound for regulating body weight imbalance, composition thereof and application thereof” (GUANGZHOU CENTURY CLINICAL RESEARCH CO., LTD, priority 2019, dated 2025).
Like-named read-outs stand apart in the source and are kept apart here.

Columns and labels:
rats in obese model = test: Effect on BMI of rats in obese model (formula feed); type: in vivo, SD rats; details: for BMI / BMI of animals compared with the model group (in words): 4 weeks; for BMI: model group 7.73 ± 0.27
Text: Except the blank group and the model group, each group had three subgroups: low dose, middle dose, and high dose. There were 6 animals in each subgroup.
The animals in the blank group were fed with a common feed every day. The animals in each group except the blank group were fed with a formula feed every day. The formula feed contained 5% of cholesterol, 6% of sucrose, 20% of egg yolk, 6% of peanut butter, 12% of whole milk powder, 6% of sesame oil (the percentage was by mass) and other ingredients of the common feed.
Each test drug was mixed with 5% methylcellulose solution; the animals in each group except the blank group and the model group were administered intragastrically respectively with a low dose of 100 mg/kg, a middle dose of 400 mg/kg and a high dose of 1,600 mg/kg; the animals in the blank group and the model group were not administered with the test drug and they were administered intragastrically with the same amount of 5% methylcellulose solution respectively. The intragastric administration was conducted once a day continuously for 4 weeks.
During the test process, the animals in each group were able to eat normally without anorexia. The stool characteristics were normal and no obvious diarrhea occurred.
After the last drug administration, the animals in each group were fasted for 12 h, during which water was provided, and then the animals were weighed.
Body length (distance from the nose to the anus) was measured after the animals were anesthetized with sodium pentobarbital and body mass index (BMI) (BMI=weight (kg)÷(height (m))^2) was calculated.
Statistical analysis was conducted by using the data in each group and the main results were screened and shown in Table 3 (Note: some test drugs in the table only list the middle-dose subgroups).

[1] = system: patients diagnosed with gastric ulcer or duodenal ulcer; details: 4 weeks
Text: (§1) Efficacy and safety of the compound of the present disclosure in treating ulcers were studied in patients suffering from gastric ulcer or duodenal ulcer.
(§2) The dosage was based on a standard dosage of 3 g per day and should be increased or decreased according to individual conditions of the patients.
The number of ulcer foci and the area of ulcer foci (mm^2) of each patient were checked before and after the treatment, and the efficacy after treatment was judged according to the following criteria:
Completely healed: after the treatment, the ulcers and surrounding inflammation all disappeared after an endoscopic examination;
Basically healed: after the treatment, the ulcers disappeared in an endoscopic examination, but there was still inflammation; and partially healed: after the treatment, the area of the ulcers was reduced by 50% or more in an endoscopic examination; and
Unhealed: after the treatment, the area of the ulcers was reduced by less than 50% in an endoscopic examination.
The healing rate was used as an indicator of efficacy. Healing rate=(number of completely healed patients+number of basically healed patients)÷total number of patients in this group×100%.

[2] = system: persons suffering from weight imbalance
[3] = system: patients diagnosed with gastric ulcer or duodenal ulcer; test: Routine examination indicators and digestive function before and after drug treatment (safety); type: in vivo, human; details: after treatment, 4 weeks
Text: as §1, §2
The number of red blood cells, the number of white blood cells, ALT, AST, serum creatinine, urine protein and other laboratory test items were checked before and after treatment. Routine clinical diagnostic criterias were used to determine whether the test items were normal and the normal rate was calculated. Normal rate of test indicators=number of patients with normal test indicators÷total number of patients in this group×100%
Effects of the drug on normal digestive function of the patients were also investigated before and after treatment by determining the rate of loose stool and the rate of constipation: Rate of loose stool=number of patients with loose stool÷total number of patients in this group×100%; and Rate of constipation=number of patients with constipation÷total number of patients in this group×100%.

[4] = for Rate of weight change: after treatment vs before, 4 weeks
Text: as §2
Weight changes of patients before and after treatment were also investigated: Rate of weight change=(weight after treatment−weight before treatment)÷weight before treatment×100%.

[5] = middle dose 400 mg/kg intragastrically once a day

## sucralfate [reference compound]
Rats in obese model; [5]
  BMI: 7.87 ± 0.34 kg/m^2
Rats in obese model; obese model rats
  BMI of animals compared with the model group (in words): no significant difference

## dosmalfate [compound 3]
[1]; Group 0.5 g/day, 10 patients
  Healing rate of ulcers: 30.0%
[1]; Group 1 g/day, 18 patients
  Healing rate of ulcers: 55.6%
[1]; Group 3 g/day, 37 patients
  Healing rate of ulcers: 62.2%
[1]; Group 9 g/day, 10 patients
  Healing rate of ulcers: 80.0%
[1]; Group 18 g/day, 5 patients
  Healing rate of ulcers: 80.0%
Rats in obese model; high dose 1,600 mg/kg intragastrically once a day
  BMI: 5.85 ± 0.23 kg/m^2
Rats in obese model; low dose 100 mg/kg intragastrically once a day
  BMI: 6.72 ± 0.32 kg/m^2
Rats in obese model; [5]
  BMI: 6.06 ± 0.29 kg/m^2
Rats in obese model; obese model rats
  BMI of animals compared with the model group (in words): significantly reduced
Rats in obese model; obese model rats, same dose
  Relative effectiveness on BMI at the same dose (in words): more effective than compound 1 and compound 2
[2]; A person, 680 μmol/L before, 3 g three times a day, two months, no uric acid-lowering drug
  Uric acid level after administration: 600 µmol/L
[2]; A person, BMI 29 before, 1.5 g three times a day, three months
  BMI index after administration: 25.7
[2]; A person, BMI 32 before, 3 g three times a day, two months
  BMI index after administration: 28.2
[2]; Person, BMI 25 before, 1 g twice a day, two months
  BMI index after administration: 22
[2]; Person, obesity and hyperuricemia, 85 kg before, 3 g three times a day, two months
  Body weight after administration: 75 kg
[2]; Person, polycystic ovary syndrome, 62 kg before, 1.5 g three times a day, three months
  Body weight after administration: 55 kg
[3]; Group 0.5 g
  Normal rate of ALT: 90.0%
  Normal rate of AST: 100.0%
  Normal rate of red blood cells: 100.0%
  Normal rate of serum creatinine: 100.0%
  Normal rate of urine protein: 100.0%
  Normal rate of white blood cells: 100.0%
  Rate of constipation: 0.0%
  Rate of loose stool: 0.0%
[3]; Group 1 g
  Normal rate of ALT: 94.4%
  Normal rate of AST: 100.0%
  Normal rate of red blood cells: 94.4%
  Normal rate of serum creatinine: 100.0%
  Normal rate of urine protein: 94.4%
  Normal rate of white blood cells: 100.0%
  Rate of constipation: 0.0%
  Rate of loose stool: 0.0%
[3]; Group 3 g
  Normal rate of ALT: 91.9%
  Normal rate of AST: 94.6%
  Normal rate of red blood cells: 94.6%
  Normal rate of serum creatinine: 94.6%
  Normal rate of urine protein: 94.6%
  Normal rate of white blood cells: 91.9%
  Rate of constipation: 2.7%
  Rate of loose stool: 0.0%
[3]; Group 9 g
  Normal rate of ALT: 90.0%
  Normal rate of AST: 90.0%
  Normal rate of red blood cells: 90.0%
  Normal rate of serum creatinine: 100.0%
  Normal rate of urine protein: 100.0%
  Normal rate of white blood cells: 100.0%
  Rate of constipation: 0.0%
  Rate of loose stool: 0.0%
[3]; Group 18 g
  Normal rate of ALT: 100.0%
  Normal rate of AST: 100.0%
  Normal rate of red blood cells: 80.0%
  Normal rate of serum creatinine: 100.0%
  Normal rate of urine protein: 100.0%
  Normal rate of white blood cells: 80.0%
  Rate of constipation: 0.0%
  Rate of loose stool: 0.0%
[4]; Group 0.5 g
  Rate of weight change: −4.2%
[4]; Group 1 g
  Rate of weight change: −5.3%
[4]; Group 3 g
  Rate of weight change: −7.0%
[4]; Group 9 g
  Rate of weight change: −7.1%
[4]; Group 18 g
  Rate of weight change: −3.8%
[4]; each dosage group, after 4 weeks of administration
  Effect on weight of ulcer patients (in words): weight loss to varing degrees

## COc1ccc(-c2cc(=O)c3c(O)cc(O[C@@H]4O[C@H](CO[C@@H]5O[C@@H](C)[C@H](O)[C@@H](O)[C@H]5O)[C@@H](O)[C@H](O)[C@H]4O)cc3o2)cc1O [diosmin, reference compound]
Rats in obese model; [5]
  BMI: 7.60 ± 0.39 kg/m^2
Rats in obese model; obese model rats
  BMI of animals compared with the model group (in words): no significant difference
